Data reported in paper PMC6728334 (Scientific Reports, 2019).
pIC50: −log10 of the molar value. “Also recorded” adds a separate entry of the source. Like-named read-outs stand apart in the source and are kept apart here.

Columns and labels:
[1] = system: ubiquitin-overexpressing HEK 293 cells; assay: Cell survival in ubiquitin-overexpressing cells vs empty vector-transfected control cells; format: cell-based, human; conditions: 24-h treatment at IC50 of each compound (Myr 3 mM, DM 650 μM; puromycin 1 and 2 μM)
Protocol: (§1) HEK 293FT cells were evaluated for survival following compound treatments by the Alamar Blue (resazurin) assay. Cells were plated onto 96-well plates at 4.8 × 10^4 cells/well in 0.5% FBS-containing DMEM at 37 °C and 5% CO2. After 24 h, compounds were added. After 24-h treatment, resazurin was added to a final concentration of 0.12 mM. Following 4-h incubation, conversion to the resorufin product was measured (with excitation at 542 nm and emission at 590 nm) on a fluorescence plate reader.
(§2) HEK 293FT cells (1.5 × 10^6) were plated onto 6-cm plates in 5 ml of DMEM with 10% FBS and allowed to grow for 24 h at 37 °C and 5% CO2. For transfections, 6 μg of plasmid DNA (empty vector containing FLAG-tag sequence only, FLAG-Uba1, or FLAG-ubiquitin) and 10 μl of Lipofectamine 2000 were used for each plate. The DNA and the reagent were diluted separately in 500 μl of Opti-MEM (Gibco), and each was mixed by vortexing. After 5-min incubation, the two tubes were combined and incubated for another 20 min. Prior to adding the transfection solution to the cells, the medium was replaced with 4 ml of Opti-MEM. The transfection solution was then added dropwise. After 3-h incubation, the medium was changed to 0.5% FBS-containing DMEM, and the cells were plated for cell survival experiments, as above.

[2] = system: Uba1-overexpressing HEK 293 cells; assay: Cell survival in Uba1-overexpressing cells vs empty vector-transfected control cells; format: cell-based, human; conditions: 24-h treatment at IC50 of each compound (Myr 3 mM, DM 650 μM; puromycin 1 and 2 μM)
Protocol: as §1, §2

Uba1 = target: T1, Uba1 (Homo sapiens, UniProt P22314); assay: Uba1~ubiquitin thioester formation (Uba1, GST-ubiquitin, ATP; silver-stained gels); format: biochemical; conditions: for Activity in the Uba1~ubiquitin thioester formation assay (in words): up to 500 μM
T1 construct: His; host or cells: E. coli BL21(DE3)
T1 sequence (P22314 1-1058): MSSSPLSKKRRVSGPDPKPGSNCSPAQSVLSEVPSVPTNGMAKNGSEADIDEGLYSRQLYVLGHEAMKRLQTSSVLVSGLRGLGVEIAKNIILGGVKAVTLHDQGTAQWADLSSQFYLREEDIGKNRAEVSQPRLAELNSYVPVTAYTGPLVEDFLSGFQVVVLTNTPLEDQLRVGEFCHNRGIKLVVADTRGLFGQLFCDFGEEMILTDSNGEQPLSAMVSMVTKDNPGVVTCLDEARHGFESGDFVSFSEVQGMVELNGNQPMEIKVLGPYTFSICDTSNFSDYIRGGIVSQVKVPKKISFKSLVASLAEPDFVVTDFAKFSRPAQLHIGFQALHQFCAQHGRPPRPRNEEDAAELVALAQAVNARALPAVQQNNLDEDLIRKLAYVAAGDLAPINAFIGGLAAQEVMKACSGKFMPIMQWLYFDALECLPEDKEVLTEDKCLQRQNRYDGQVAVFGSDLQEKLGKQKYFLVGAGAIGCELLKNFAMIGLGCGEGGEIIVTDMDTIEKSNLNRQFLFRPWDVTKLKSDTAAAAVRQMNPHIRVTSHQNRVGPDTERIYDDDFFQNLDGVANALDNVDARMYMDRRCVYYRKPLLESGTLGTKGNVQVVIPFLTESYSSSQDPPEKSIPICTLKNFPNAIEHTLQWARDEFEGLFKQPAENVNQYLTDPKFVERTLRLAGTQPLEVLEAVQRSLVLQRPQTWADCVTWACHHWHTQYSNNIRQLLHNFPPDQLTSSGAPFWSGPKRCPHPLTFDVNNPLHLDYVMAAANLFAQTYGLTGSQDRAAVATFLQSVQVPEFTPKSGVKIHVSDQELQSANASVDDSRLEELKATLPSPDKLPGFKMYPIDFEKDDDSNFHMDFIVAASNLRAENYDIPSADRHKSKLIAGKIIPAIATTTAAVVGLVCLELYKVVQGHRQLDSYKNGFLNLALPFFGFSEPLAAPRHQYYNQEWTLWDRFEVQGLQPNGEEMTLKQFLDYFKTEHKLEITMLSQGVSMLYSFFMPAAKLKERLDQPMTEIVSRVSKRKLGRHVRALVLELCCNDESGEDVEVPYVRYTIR

[3] = system: PCNA ubiquitination (RFC, Uba1, Rad6, Rad18, PCNA, ubiquitin); assay: Reconstituted PCNA ubiquitination cascade, Western blot quantitation; format: biochemical, human; conditions: for pIC50: 15 min preincubation, 2 h with ATP, 2% DMSO, nonlinear regression, read-out: IC50 for inhibition of PCNA ubiquitination; for Activity in the PCNA ubiquitination assay (in words): up to 500 μM
Protocol: The PCNA loading and ubiquitination cascade was reconstituted in 96-well white round-bottom polypropylene plates (Greiner) in a buffer consisting of 40 mM Tris-HCl, pH 7.5, 8 mM MgCl2, and 10% glycerol with 2.5 nM nicked circular pUC19, 50 nM RFC, 50 nM Uba1, 250 nM Rad6–Rad18 dimer, 50 nM FLAG-PCNA, and 250 nM biotin-ubiquitin (final concentrations). Compounds were added to the samples, with preincubation for 15 min at 25 °C before addition of ATP to a final concentration of 2 mM (to initiate the reaction cascade), followed by incubation for 2 h at 25 °C. The reactions were then terminated by addition of EDTA to 20 mM for Alpha assays or Laemmli sample buffer for Western blot analyses. For Alpha assays, reaction mixtures were diluted in buffer containing streptavidin-conjugated donor beads and anti-FLAG antibody-conjugated acceptor beads in opaque white microplates under low-light conditions, as recommended by the Alpha bead manufacturer, PerkinElmer. The plates were read on a Tecan Spark microplate reader at 23 °C. For Western blot analyses, FLAG-PCNA was detected with anti-FLAG antibody, and quantitations from the Western blot images was performed with NIH ImageJ software[74] and then analyzed with GraphPad Prism software.

HEK 293FT cells = assay: Cell survival, Alamar Blue (resazurin) assay; format: cell-based, human; conditions: for Activity on cell viability / survival (in words) / pIC50: 24-h treatment; for pIC50: 2% DMSO, read-out: IC50 for inhibition of cell survival
Protocol: For cellular experiments, HEK 293FT cells (a fast-growing SV40 large T antigen-transformed strain of HEK 293 cells designed for enhanced transgene expression in transient transfections) were grown in growth medium consisting of Dulbecco’s modified Eagle’s medium (DMEM; Sigma-Aldrich), supplemented with 10% fetal bovine serum (FBS; Gibco) in a humified cell culture incubator at 37 °C with 5% CO2.
as §1

[4] = Uba1 preincubated with compound 15 min, 2 h reaction, 2% DMSO, read-out: IC50 for inhibition of Uba1~ubiquitin thioester formation

SMILES	pIC50 (Uba1; Fig. 6, unit printed as M, read-out: IC50 (Uba1~Ub))	pIC50 (Uba1; [4])	pIC50 [3]	Activity in the Uba1~ubiquitin thioester formation assay (in words) (Uba1)	Effect of ubiquitin overexpression on cell survival [1]	Effect of Uba1 overexpression on cell survival [2]	Activity in the PCNA ubiquitination assay (in words) [3]	Activity in the cell viability experiments at 500 μM (HEK 293FT cells; 24 h)	Activity on cell viability / survival (in words) (HEK 293FT cells)	pIC50 (HEK 293FT cells; Homo sapiens, HEK293FT, 24 h)	pIC50 (HEK 293FT cells)
O=C1c2c(O)cc(O)cc2O[C@H](c2cc(O)c(O)c(O)c2)[C@H]1O [DM, (+)-Dihydromyricetin]	4.84	4.85	4.18		Protects	Does not protect	active	only very weak activity	very weak activity	< 3.30	
Oc1cc(O)c2c(c1)O[C@H](c1ccc(O)c(O)c1)[C@H](O)C2 [EC, (–)-Epicatechin]		< 3.30	< 3.30	inactive			inactive	only very weak activity		< 3.30	
O=C(O)c1cc(O)c(O)c(O)c1 [GA, Gallic acid]		< 3.30	< 3.30	inactive	not mitigated; also recorded: Does not protect	not mitigated; also recorded: Does not protect	inactive		little effects	3.62	3.62
Oc1cc(O)c2c(c1)O[C@H](c1cc(O)c(O)c(O)c1)[C@H](O)C2 [EGC, (–)-Epigallocatechin]		5.12	4.36	weak activity	not affected; also recorded: Does not protect	not affected; also recorded: Does not protect	weak activity		measurable cytostatic/cytotoxic activity	3.75	3.76
COc1ccc(C[C@H](N)C(=O)N[C@H]2[C@@H](O)[C@H](n3cnc4c(N(C)C)ncnc43)O[C@@H]2CO)cc1 [puromycin, reference compound]					no differences	no differences					
Oc1cc(O)c2c(c1)O[C@H](c1ccc(O)c(O)c1)[C@@H](O)C2 [Cat, (+)-Catechin]		< 3.30	< 3.30	inactive			inactive	only very weak activity		< 3.30	

The next lines start with results.

pIC50 (Uba1; Fig. 6, unit printed as M, read-out: IC50 (Uba1~Ub))	pIC50 (Uba1; [4])	pIC50 [3]	Activity in the Uba1~ubiquitin thioester formation assay (in words) (Uba1)	SMILES	Effect of ubiquitin overexpression on cell survival [1]	Effect of Uba1 overexpression on cell survival [2]	Activity in the PCNA ubiquitination assay (in words) [3]	Activity in the cell viability experiments at 500 μM (HEK 293FT cells; 24 h)	Activity on cell viability / survival (in words) (HEK 293FT cells)	pIC50 (HEK 293FT cells; Homo sapiens, HEK293FT, 24 h)	pIC50 (HEK 293FT cells)
	4.09	4.99	active	CCCCCCCCOC(=O)c1cc(O)c(O)c(O)c1 [OG, n-Octyl gallate]	Protects	Protects	active		active	4.41	
	< 3.30	< 3.30	inactive	CCCOC(=O)c1cc(O)c(O)c(O)c1 [PG, n-Propyl gallate]	not mitigated; also recorded: Does not protect	not mitigated; also recorded: Does not protect	inactive		little effects	3.75	3.75
	4.46	5.79	active	CCCCCCCCCCCCOC(=O)c1cc(O)c(O)c(O)c1 [DG, n-Dodecyl gallate]	Protects	Does not protect	active		active	4.47	4.48
